Reference: patent US20070264241A1, “Compounds for Enhanced Cancer Therapy” (priority 2004, published 2007)
Like-named read-outs stand apart in the source and are kept apart here.

Experiments:
[1] = system: glioma cells expressing HSV-TK (S6) mixed with RFP cells; assay: Gap junction mediated cell death (bystander effect), MTT ratio A1:RFP/S6:RFP; type: cell-based, Rat; conditions: added to ganciclovir and 4-PB treatment
Procedure: Mixtures of cell dones were treated with drugs as indicated. After 96 h (grey bar), 120 h (white bar) and 168 h (black bar) MTT tests from three samples were performed. The ratios of the MTT tests from TK negative and TK positve mixtures (A1:RFP/S6:RFP) are shown.
Glioma cells with stable expression of green fluorescent protein (EGFP) and the herpes simplex virus thymidine kinase expressing gene HSV-TK in sense (S6) or in antisense (A1) were mixed with cells stably expressing the red fluorescent protein (RFP) (ratio 3:7 S6:RFP or A1:RFP). Ganciclovir, 4-phenylbutyrate and AGA were added 3 hrs after seeding the cells, except for AGA, which was added directly at seeding of cells. After 48 hours, cells were split and after 96, 120 and 168 hrs one each of the cell culture quadruplicates was used for MTT-test while one sample was employed for FACS analysis. After 144 h cells from the third of the quadruplicate were split again and the last quadruplicate sample was analyzed the following day (168 h).
Proliferation of cultured glioma cells was assessed by 3-(4,5-dimethylthiazol-2-yl)-2,5-diphenyltetrazolium bromide (MTT, Sigma) assay. […] The absorbance at 570 nm (with reference at 650 nm) was measured using a microtiter plate spectrophotometer (Anthos HT III). The results were expressed as percentage of viable cells compared to the control sample of untreated cells (100%).

[2] = system: gap junction communication between S6 and RFP cells; assay: Fluorescent dye transfer between glioma cells (S6 to RFP); type: cell-based, Rat; conditions: unlabeled recipient cells
Procedure: S6 and RFP cells were plated each in two separate dishes with one dish of each cell type treated either with AGA or DMSO. S6 cells of both dishes were incubated with Calcein-AM and Dil. Cells were trypsinized and 85% RFP cells were mixed with 15% S6 cells and mixtures were co-cultured in two dishes where one contained cells pretreated with AGA (right panel). After 2.5 hours cells were incubated with Hoechst nuclear stain and Calcein-AM dye transfer from S6 cells to RFP cells was monitored.
Glioblastoma cells were cultured on 35 mm petri dishes and in vitro labelled with 5 μM calcein-AM (acetomethylic ester) and 10 μM Dil (Molecular Probes) diluted in supplemented serum free medium DMEM/F12 and incubated for 30 min at 37° C. The cells were washed once with the same medium, trypsinized and suspended in the culture medium induding 10% FBS. The cells were pelleted by centrifugation at 1600 rpm for 1 minute and resuspended in fresh culture medium. The procedure was repeated twice. Following the second resuspension, the labelled cells were plated on top of unlabelled cells of the same origin. These cells were either pretreated with 4-PB at a concentration of 5 mM, or non-treated serving as a control. The labeled cells were then allowed to settle for 1 hour, followed by analyses using epifluorescence detection microscopy every 30 minutes for up to 6 hours. […]

[3] = system: U87MG cells; assay: XTT cytotoxicity assay of phenylbutyrate and of nucleoside analogues with or without phenylbutyrate pre-incubation; type: cell-based, human; conditions: 120 hours drug exposure; for IC50: combinations: 24 h pre-incubation with 3.16 mM phenylbutyrate, read-out: IC50 U87MG; for sensitivity increase by phenylbutyrate pre-incubation: U87MG pre-incubated 24 h with phenylbutyrate
Procedure: Briefly, cells were harvested by trypsinzation, stained by Tryphan Blue for cell viability counting, seeded in triplicate in 96-well plates (1.000-2.000 cells/well) where after media conditioned with a fixed concentration of phenyl butyrate (3.16 mM) were added to the plates followed by incubation for 24 hours at 37° C. and 5% CO2. Cell proliferation/cytotoxicity was assessed by adding the colour generating substrates of the Cell Proliferation kit II (XTT) from Roche (Cat. No. 1465015) and measuring absorbance at 450 nm and 690 nm with a Thermo Labsystems Multiscan Ascent reader.
(§1) Cells were seeded at a density of 1.000-2.000 cells/well in 96-well plates. Cells were pre-incubated with 4-phenyl butyrate for 24 hours prior to drug exposure by adding media conditioned with phenyl butyrate at a fixed concentration (3.16 mM). Plated incubated for 24 hours (37° C., 5% CO2) where after media was discarded and replaced by media conditioned with various concentrations of nucleoside analogs (e.g. AZT), 200 μl/well. After 120 hours of drug exposure the experiments were terminated. Cell proliferation/cytotoxicity was assessed by adding the colour generating substrates of the Cell Proliferation kit II (XTT) from Roche (Cat. No. 1465015) and measuring absorbance at 450 nm and 690 nm with a Thermo Labsystems Multiscan Ascent reader.
The data was corrected for background media-only absorbance where after the 50% growth inhibitory concentration—IC50 (the dose that inhibits cell growth by 50%) was calculated for each treatment.
Briefly, cells were harvested by trypsinzation, stained by Tryphan Blue (Cambrex) for cell viability counting, seeded in triplicate in poly-L-lysine (PLL) (Sigma # P6282) coated 96-well plates (1.000-2.000 cells/well) where after media conditioned with a fixed concentration of phenyl butyrate (3.16 mM) was added to the plates followed by incubation for 24 hours at 37° C. and 5% CO2. Cell proliferation/cytotoxicity was assessed by adding the colour generating substrates of the
as §1, with “cells/well in PLL coated 96-well plates.” for “cells/well in 96-well plates.”, “of nucleoside analogs; AZT (Sigma # A2169), AraC (Sigma # C6645), Cladribine (CdA) (Sigma #C4438), Gancidovir (GCV) (Sigma # G2536) and Gemcitabine (Orifarm), 200 μl/well.” for “of nucleoside analogs (e.g. AZT), 200 μl/well.”, “Ascent reader. he data was corrected for background media-only absorbance where after the 50% growth inhibitory concentration—IC50 (the dose that inhibits cell growth by 50%) was calculated for ach treatment.” for “Ascent reader.”

[4] = system: U343MG cells; assay: XTT cytotoxicity assay of nucleoside analogues with or without phenylbutyrate pre-incubation; type: cell-based, human; conditions: for IC50: 120 hours drug exposure, combinations: 24 h pre-incubation with 3.16 mM phenylbutyrate
Procedure: (§2) Cells were seeded at a density of 1.000-2.000 cells/well in 96-well plates. […] Plated incubated for 24 hours (37° C., 5% CO2) where after media was discarded and replaced by media conditioned with various concentrations of nucleoside analogs (e.g. AZT), 200 μl/well. After 120 hours of drug exposure the experiments were terminated. Cell proliferation/cytotoxicity was assessed by adding the colour generating substrates of the Cell Proliferation kit II (XTT) from Roche (Cat. No. 1465015) and measuring absorbance at 450 nm and 690 nm with a Thermo Labsystems Multiscan Ascent reader. The data was corrected for background media-only absorbance where after the 50% growth inhibitory concentration—IC50 (the dose that inhibits cell growth by 50%) was calculated for each treatment. Cells were seeded at a density of 1.000-2.000 cells/well in PLL coated 96-well plates. […] Plated incubated for 24 hours (37° C., 5% CO2) where after media was discarded and replaced by media conditioned with various concentrations of nucleoside analogs; AZT (Sigma # A2169), AraC (Sigma # C6645), Cladribine (CdA) (Sigma #C4438), Gancidovir (GCV) (Sigma # G2536) and Gemcitabine (Orifarm), 200 μl/well. After 120 hours of drug exposure the experiments were terminated. Cell proliferation/cytotoxicity was assessed by adding the colour generating substrates of the Cell Proliferation kit II (XTT) from Roche (Cat. No. 1465015) and measuring absorbance at 450 nm and 690 nm with a Thermo Labsystems Multiscan Ascent reader. he data was corrected for background media-only absorbance where after the 50% growth inhibitory concentration—IC50 (the dose that inhibits cell growth by 50%) was calculated for ach treatment.

[5] = system: U87MG wt cells; assay: Cell killing effect of AZT, XTT assay, non-transduced cells; type: cell-based, human; conditions: 120 hours
Procedure: Exponentially growing U87 wt and tomato kinase expressing cells were plated at a density of 2.000 cells/well in poly-L-lysine coated 96-well plates in 100 μl conditioned medium and incubated 37° C. in a humidified incubator with a gas phase of 5% CO2. After 24 hours, medium was replaced with medium containing varying concentrations of AZT. Hereafter, cells were exposed to drug conditioned media for 120 constitutive hours. The chemo resistance of cultured cells was monitored by the surviving cell fraction as a function of the drug concentration. Viability of cells was determined via the colorimetric XTT assay (XTT kit II—Roche, cat no. 1465015). Briefly, cell media was carefully removed and 100 μl fresh media and 50 μl XTT mix was added to each well. The absorbance at 450 and 690 nm was determined using an ELISA plate reader (Ascent, ThermoLab). The IC50 value (50% inhibition concentration) of the investigated compound was calculated as the mean value of each experiment using SigmaPlot® (Dyrberg Trading, DK).

[6] = system: U87MG cells expressing tomato thymidine kinase; assay: Cell killing effect of AZT, XTT assay, tomato thymidine kinase transduced cells; type: cell-based, human; conditions: for IC50: U87MG tomato TK
[7] = system: CL2:6 cells; assay: XTT cytotoxicity assay of nucleoside analogues with or without phenylbutyrate pre-incubation; type: cell-based; conditions: 120 hours drug exposure; for IC50: combinations: 24 h pre-incubation with 3.16 mM phenylbutyrate; for sensitivity improvement/increase by phenylbutyrate pre-incubation: CL2:6 pre-incubated 24 h with phenylbutyrate
Procedure: as §2

[8] = system: hGBM-1, hGBM-5 and hGBM-14 glioblastoma cultures; assay: MTT assay of cell viability and proliferation in primary glioblastoma cultures; type: cell-based, human; conditions: hGBM-1, hGBM-5, hGBM-14; 24 hours (FIG. 2)
Procedure: Proliferation of cultured glioma cells was assessed by 3-(4,5-dimethylthiazol-2-yl)-2,5-diphenyltetrazolium bromide (MTT, Sigma) assay. MTT tetrazolium salt was dissolved in serum-free culture medium (0.5 mg/ml), added to the cells (150 μl/well) and incubated for 30 min at 37° C. Formazan dye, formed by viable cells, was solubilized in 300 μl of isopropanol. Aliquots (100 μl) of the solutions were transferred to 96-well microplates. The absorbance at 570 nm (with reference at 650 nm) was measured using a microtiter plate spectrophotometer (Anthos HT III). The results were expressed as percentage of viablecells compared to the control sample of untreated cells (100%).

[9] = system: cell line transfected with Dm dNK variant; conditions: cited from earlier work

For `CC1(C)[C@@H](O)CC[C@]2(C)[C@H]3C(=O)C=C4[C@H]5C[C@@](C)(C(=O)O)CC[C@]5(C)CC[C@@]4(C)[C@]3(C)CC[C@@H]12` [AGA, 18α glycyrrhethinic acid], the “bystander killing effect upon addition of gap junction inhibitor” value [1] was “reduced” and the “calcein transfer from Dil-positive donor cells” value [2] was “inhibited”.

For `Cc1cn([C@H]2C[C@H](N=[N+]=[N-])[C@@H](CO)O2)c(=O)[nH]c1=O` [AZT, 3′-azido-3′-thymidine], the IC50 [3] was 6000 µM, the IC50 [4] was 56 µM and the “sensitivity improvement by phenylbutyrate pre-incubation” value ([4]; U343MG pre-incubated 24 h with phenylbutyrate) was 4.2 times. The IC50 [5] was 7430 µM, the “sensitivity increase of tomato TK expressing U87 cells compared to wt U87MG” value [6] was 500 fold and the IC50 ([6]; 120 hours, read-out: IC50 for tomato TK transduced cells) was 14.8 µM. For the same molecule, the IC50 ([6]; read-out: IC50 measured in FIG. 15B, approximate) was about 15 µM, the IC50 [7] was 573 µM and the “sensitivity improvement/increase by phenylbutyrate pre-incubation” value [7] was 1.7 times.

In the case of `Nc1ccn([C@@H]2O[C@H](CO)[C@@H](O)[C@@H]2O)c(=O)n1` [AraC, cytidine-arabinoside], the IC50 [3] is reported as 4340 µM and the “sensitivity increase by phenylbutyrate pre-incubation” value [3] is reported as 3.5 times.

For `Nc1nc(Cl)nc2c1ncn2[C@H]1C[C@H](O)[C@@H](CO)O1` [CdA, 2-chloro-2′-deoxyadenosine], the IC50 ([3]; Homo sapiens, U-87 MG) was 5.74 µM and the “sensitivity increase by phenylbutyrate pre-incubation” value [3] was 2.3 times.

In the case of `Nc1nc(O)c2ncn(COC(CO)CO)c2n1` [GCV, 9-[2-hydroxy-1-(hydroxymethyl)ethoxyl-methyl]-guanosine], the IC50 ([4]; Homo sapiens, U-343MG) is reported as 104 µM, the IC50 [7] is reported as 3360 µM and the “sensitivity improvement/increase by phenylbutyrate pre-incubation” value [7] is reported as 1.4 times.

In the case of `Nc1ccn([C@@H]2O[C@H](CO)[C@@H](O)C2(F)F)c(=O)n1` [Gemcitabine, 2′,2′-difluorodeoxycytidine], the IC50 ([3]; Homo sapiens, U-87 MG) is reported as 0.248 µM and the “sensitivity increase by phenylbutyrate pre-incubation” value [3] is reported as 7.8 times.

For `O=C1CCc2c(ccc3ccccc23)O1` [Splitomicin, splitomicin], the “antiproliferative potency compared with 4-PB (MTT)” value [8] was “less potent”.

With `CC(/C=C/C(=O)NO)=C\[C@@H](C)C(=O)c1ccc(N(C)C)cc1` [Trichostatin A] the “antiproliferative potency compared with 4-PB (MTT)” value [8] was “less potent”.

For `CCCC(=O)[O-].[Na+]` [sodium butyrate], the “antiproliferative potency compared with 4-PB (MTT)” value [8] was “less potent”.

In the case of `CCCC(CCC)C(=O)O` [valproic acid], the “antiproliferative potency compared with 4-PB (MTT)” value [8] is reported as “less potent”.

B1: B5: mutant form of the Drosophila melanogaster Dm dNK deoxyribonucleoside kinase (SEQ ID NO 5) (protein)
chain: MAEAASCARKGTKYAEGTQPFTVLIEGNIGSGKTTYLNHFEKYKNDICLLTEPVEKWRNVNGVNLLELMYKDPKKWAMPFQSYATLTMLQSHTAPTNKKLKIMERSIFSARYCFVENMRRNGSLEQGMYNTLEEWYKFIEESIHVQADLIIYLRTSPEVAYERIRQRARSEESCVPLKYLQELHELHEDWLIHQRRPQSCKVLVLDADLDLENIGTEYQRSESSIFDAISSNQQPSPVPVSPSKRQRVAR
modifications: Drosophila melanogaster
For B1, the “degree of activation for gemcitabine relative to wild type Dm dNK” value [9] is given as “approximately 50 times”.
